From PubChem BioAssay (NCI) come the findings set out here.

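Each compound was tested at five concentrations against cells in 96-well plates for 48 hours. TGI is the concentration that stops growth completely.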 Bounds are passed on as bounds.

Test systems include 786-0 renal; A498 renal; CAKI-1 renal; DU-145 prostate; HCT-15 colon; HOP-92 NSCLC; IGROV1 ovarian; K-562 leukemia; MOLT-4 leukemia; NCI/ADR-RES ovarian; PC-3 prostate; RXF 393 renal; SK-MEL-2 melanoma; SN12C renal; SNB-19 CNS; SNB-75 CNS; U251 CNS; UACC-62 melanoma.
What all share (experiment): inhibition of tumour cell growth, NCI panel, 48 h

Regarding `CCCCCC(=O)OC[n+]1cccc(-c2c(COC(=O)NC(C)C)c(COC(=O)NC(C)C)c3n2CCC3)c1`, the TGI with 786-0 renal was > 100 µM; with A498 renal, 37.7 µM; in the assay with CAKI-1 renal, > 53.9 µM; with DU-145 prostate it was > 100 µM; in the assay on HCT-15 colon, > 100 µM; with HOP-92 NSCLC, 77.2 µM. The TGI in the assay with IGROV1 ovarian is > 100 µM; in the assay on K-562 leukemia, > 100 µM; in the assay on MOLT-4 leukemia it was > 71.1 µM; with NCI/ADR-RES ovarian it was > 100 µM; in the assay with PC-3 prostate, > 100 µM; in the assay on RXF 393 renal it was > 67.1 µM. Moreover, the TGI is 94.7 µM with SK-MEL-2 melanoma; > 100 µM with SN12C renal; > 100 µM in the assay on SNB-19 CNS; > 100 µM in the assay with SNB-75 CNS; > 100 µM in the assay with U251 CNS; 89.2 µM in the assay with UACC-62 melanoma.
Turning to `CCOc1ccc(NC(=O)C(=O)C(/C(=N/N)C(=O)OC)c2nc3ccc([N+](=O)[O-])cc3[nH]c2=O)cc1` (stereo unspecified), the TGI with 786-0 renal, with A498 renal, with CAKI-1 renal, in the assay on DU-145 prostate, with HCT-15 colon and with HOP-92 NSCLC was > 100 µM in each case. For the same compound, the TGI with IGROV1 ovarian, in the assay with K-562 leukemia, in the assay with MOLT-4 leukemia, with NCI/ADR-RES ovarian, in the assay with PC-3 prostate and in the assay on RXF 393 renal was > 100 µM throughout. The TGI in the assay on SK-MEL-2 melanoma, in the assay on SN12C renal, in the assay on SNB-19 CNS, with SNB-75 CNS, in the assay with U251 CNS and with UACC-62 melanoma was > 100 µM in each case.
Consider `COC(=O)/C=C1\C(CO[Si](C)(C)C(C)(C)C)OC(n2ccc(=O)[nH]c2=O)C1O` (stereo unspecified), for which the TGI in the assay with 786-0 renal was 16.6 µM; in the assay with A498 renal it was 41.6 µM; with CAKI-1 renal, > 100 µM; with DU-145 prostate, 32.7 µM; with HCT-15 colon it was 35.2 µM; with HOP-92 NSCLC, 44 µM. Also, the TGI with IGROV1 ovarian is > 75.2 µM; in the assay with K-562 leukemia, > 95.4 µM; in the assay with MOLT-4 leukemia, > 31.6 µM; with NCI/ADR-RES ovarian, 38.4 µM; in the assay with PC-3 prostate, > 27.9 µM; with RXF 393 renal, 32.5 µM. Moreover, the TGI was 21.1 µM with SK-MEL-2 melanoma; > 54.4 µM in the assay with SN12C renal; > 100 µM in the assay with SNB-19 CNS; > 100 µM in the assay with SNB-75 CNS; > 87.3 µM with U251 CNS; 54.1 µM with UACC-62 melanoma.
For `CC(C)(C)OC(=O)/N=C/c1c(O)c2ccccc2oc1=O`, the TGI was > 100 µM with 786-0 renal; 78.5 µM in the assay on A498 renal; 52.6 µM in the assay on CAKI-1 renal; > 100 µM with DU-145 prostate; > 100 µM in the assay with HCT-15 colon; > 100 µM with HOP-92 NSCLC. Further, the TGI with IGROV1 ovarian, in the assay on K-562 leukemia, in the assay with MOLT-4 leukemia, in the assay on NCI/ADR-RES ovarian, with PC-3 prostate and in the assay with RXF 393 renal was > 100 µM throughout. Besides, the TGI in the assay on SK-MEL-2 melanoma was 45.2 µM; in the assay with SN12C renal it was > 100 µM; in the assay on SNB-19 CNS, > 100 µM; with SNB-75 CNS, > 100 µM; in the assay with U251 CNS, > 100 µM; in the assay with UACC-62 melanoma, > 100 µM.
As for `COc1ccc(OC/C(N)=N/NC(=O)c2ccncc2)cc1`, the TGI with 786-0 renal, in the assay on A498 renal, in the assay with CAKI-1 renal, in the assay with DU-145 prostate, with HCT-15 colon and in the assay on HOP-92 NSCLC was > 100 µM in each case. For the same compound, the TGI in the assay on IGROV1 ovarian, in the assay on K-562 leukemia, in the assay with MOLT-4 leukemia, in the assay on NCI/ADR-RES ovarian, in the assay on PC-3 prostate and in the assay on RXF 393 renal was > 100 µM each time. Moreover, the TGI in the assay on SK-MEL-2 melanoma, with SN12C renal, with SNB-19 CNS, in the assay on SNB-75 CNS, in the assay on U251 CNS and in the assay with UACC-62 melanoma was > 100 µM in each case.
`COc1cc(S(=O)(=O)Nc2nc(-c3ccc(N=Cc4ccccc4O)cc3)cs2)ccc1Cl`: the TGI in the assay on 786-0 renal, with A498 renal, with CAKI-1 renal, with DU-145 prostate, with HCT-15 colon and in the assay with HOP-92 NSCLC was > 100 µM in each case. Further, the TGI in the assay with IGROV1 ovarian, in the assay on K-562 leukemia, with MOLT-4 leukemia, in the assay on NCI/ADR-RES ovarian, in the assay on PC-3 prostate and in the assay with RXF 393 renal was > 100 µM throughout. Further, the TGI in the assay on SK-MEL-2 melanoma was > 100 µM; with SN12C renal it was 77.3 µM; in the assay on SNB-19 CNS, > 100 µM; in the assay on SNB-75 CNS it was > 100 µM; with U251 CNS, > 100 µM; with UACC-62 melanoma, 75.9 µM.
For the compound `Nc1ccc2c(=S)c3ccccc3[nH]c2c1`, the TGI in the assay on 786-0 renal was > 100 µM; with A498 renal it was > 100 µM; with CAKI-1 renal, > 100 µM; in the assay on DU-145 prostate, > 100 µM; in the assay on HCT-15 colon, > 100 µM; in the assay with HOP-92 NSCLC, 98.9 µM. The TGI in the assay with IGROV1 ovarian is > 100 µM; with K-562 leukemia, > 100 µM; with MOLT-4 leukemia, > 84.4 µM; in the assay on NCI/ADR-RES ovarian it was > 100 µM; in the assay on PC-3 prostate it was > 100 µM; in the assay on RXF 393 renal, 98.9 µM. The TGI with SK-MEL-2 melanoma, in the assay with SN12C renal, in the assay with SNB-19 CNS, with SNB-75 CNS, in the assay with U251 CNS and in the assay with UACC-62 melanoma was > 100 µM throughout.
For the compound `NC(CCC(=O)O)C(=O)NC(Cc1ccc(N(CCCl)CCCl)cc1)C(=O)O` (stereo unspecified), the TGI in the assay with 786-0 renal, in the assay on A498 renal, in the assay with CAKI-1 renal, in the assay with DU-145 prostate, in the assay with HCT-15 colon and in the assay with HOP-92 NSCLC was > 100 µM in each case. Also, the TGI in the assay with IGROV1 ovarian, in the assay with K-562 leukemia, in the assay with MOLT-4 leukemia, in the assay with NCI/ADR-RES ovarian, with PC-3 prostate and in the assay with RXF 393 renal was > 100 µM each time. In addition, the TGI with SK-MEL-2 melanoma, in the assay with SN12C renal, in the assay with SNB-19 CNS, in the assay on SNB-75 CNS, with U251 CNS and in the assay with UACC-62 melanoma was > 100 µM throughout.
For `COc1ccc(NC(=S)c2ccc([N+](=O)[O-])o2)cc1`, the TGI in the assay with 786-0 renal is 4.99 µM; with A498 renal it was 29.1 µM; with CAKI-1 renal, 14.1 µM; with DU-145 prostate it was 10.2 µM; in the assay on HCT-15 colon, 3.56 µM; in the assay on HOP-92 NSCLC it was 30.6 µM. Moreover, the TGI in the assay on IGROV1 ovarian was 8.56 µM; in the assay on K-562 leukemia it was 7.55 µM; with MOLT-4 leukemia, 13.9 µM; in the assay with NCI/ADR-RES ovarian, 12.2 µM; in the assay on PC-3 prostate, 2.97 µM; in the assay on RXF 393 renal, 5.01 µM. In addition, the TGI amounted to 4.15 µM with SK-MEL-2 melanoma; 4.85 µM in the assay on SN12C renal; 11.7 µM in the assay on SNB-19 CNS; 14.9 µM in the assay with SNB-75 CNS; 2.55 µM in the assay with U251 CNS; 3.47 µM with UACC-62 melanoma.
Take `COc1cc(CCN)c(OC)c(OC)c1`: the TGI with 786-0 renal, with A498 renal, in the assay on CAKI-1 renal, in the assay on DU-145 prostate, in the assay on HCT-15 colon and with HOP-92 NSCLC was > 100 µM in each case. Also, the TGI in the assay on IGROV1 ovarian, in the assay on K-562 leukemia, with MOLT-4 leukemia, in the assay with NCI/ADR-RES ovarian, with PC-3 prostate and with RXF 393 renal was > 100 µM in each case. Further, the TGI with SK-MEL-2 melanoma, in the assay on SN12C renal, in the assay with SNB-19 CNS, in the assay with SNB-75 CNS, in the assay on U251 CNS and in the assay on UACC-62 melanoma was > 100 µM each time.
With `NCCc1ccc(S(=O)(=O)O)cc1[N+](=O)[O-]`, the TGI in the assay on 786-0 renal, in the assay with A498 renal, in the assay with CAKI-1 renal, with DU-145 prostate, with HCT-15 colon and in the assay on HOP-92 NSCLC was > 100 µM each time. Further, the TGI with IGROV1 ovarian is > 100 µM; with K-562 leukemia, > 100 µM; in the assay on MOLT-4 leukemia, > 32.4 µM; in the assay on NCI/ADR-RES ovarian, > 100 µM; with PC-3 prostate it was > 100 µM; with RXF 393 renal, > 100 µM. Besides, the TGI with SK-MEL-2 melanoma, with SN12C renal, in the assay with SNB-19 CNS, with SNB-75 CNS, with U251 CNS and in the assay with UACC-62 melanoma was > 100 µM in each case.
In the case of `C[C@H]1CCC/C=C/[C@@H]2C[C@H](OC(=O)CN(C)C)C[C@H]2[C@H](O)/C=C/C(=O)O1`, the TGI with 786-0 renal was > 100 µM; in the assay on A498 renal, > 32.3 µM; in the assay with CAKI-1 renal, > 44.9 µM; with DU-145 prostate, > 33.8 µM; in the assay with HCT-15 colon, 5.54 µM; in the assay with HOP-92 NSCLC it was > 56.1 µM. Also, the TGI with IGROV1 ovarian is > 29.7 µM; in the assay on K-562 leukemia it was > 100 µM; in the assay on MOLT-4 leukemia it was 2.79 µM; in the assay with NCI/ADR-RES ovarian, 0.326 µM; in the assay on PC-3 prostate, 8.74 µM; with RXF 393 renal, 0.155 µM. In addition, the TGI with SK-MEL-2 melanoma is 1.36 µM; in the assay with SN12C renal it was 6.45 µM; in the assay with SNB-19 CNS it was > 100 µM; in the assay with SNB-75 CNS, 99.7 µM; in the assay on U251 CNS, > 100 µM; in the assay on UACC-62 melanoma it was 22.1 µM.
